Converted amounts (≈) assume the structure as drawn. Read-outs that look alike come from different tables or passages of the source.
Assays:
[1] = Experimental lipophilicity, shake-flask n-octanol/water; format: physicochemical; conditions: n-octanol/50 mM MOPS buffer pH 7.4, 25±1 °C, mean±SD of three, read-out: Log D oct,7.4
Procedure: Chosen buffer was 50 mM zwitterionic MOPS (3‐morpholinopropanesulfonic acid), pH 7.4 to avoid ionic couple partitioning, with ionic strength adjusted to 0.15 M by KCl addition. Compounds, after partitioning overnight, and dilution of both phases with methanol, were dosed in the HPLC‐UV system, as detailed below. Reported log D oct,7.4 values are the mean of three measurements±standard deviation.
HPLC columns were a RP‐C18 Supelco Discovery (Supelco, Bellefonte, PA, USA), 5 μm, 150×4.6 mm i.d. for all compounds except 13, and a Phenomenex Gemini, 5 μm, 150×4.6 mm i.d. for compound 13 (Phenomenex). Elution conditions were optimized for each compound at a flow rate of 1 mL min^−1 employing mobile phases consisting of water and acetonitrile at different percentages, while UV detection was set at λ = 254 nm. For compound 13, the mobile phase consisted of a 10 mM ammonium acetate buffer pH 7.0 and methanol and the UV detection was set at λ = 281 nm.

human MT1 receptors [2] = biological target: T1, human MT1 receptors (Homo sapiens, UniProt P48039); assay: Radioligand binding, 2-[125I]iodomelatonin competition at MT1; conditions: cloned human MT1 in CHO cells; from IC50 by Cheng-Prusoff; mean±SD of three determinations; read-out: MT1 K i
Procedure: (§3) After incubation, the % of radioligand binding inhibition was determined via a scintillation counting method. The radioligand binding experiments were performed in triplicate. IC50 values were determined by nonlinear regression analysis of the competition curves using Hill equation curve fitting. The pK i values were calculated from the IC50 values in accordance with the Cheng‐Prusoff equation.[28]

[3] = Thermodynamic solubility, shake flask method; format: physicochemical; conditions: thermodynamic from solid, room temperature overnight, mean±SD, triplicate
Procedure: Thermodynamic solubility values were measured in two different buffers (pH 1.0; pH 7.4) by the shake flask method.[65] 1 mg of each compound was placed in 1 mL of appropriate buffer and shaken at room temperature overnight. The resulting suspension was centrifuged (10 min, 10000 g, 20 °C) and the supernatant analyzed by HPLC‐UV. Solubility values were interpolated from calibration curves prepared from concentrated DMSO stock solutions of each compound. Reported solubility values are the mean of three measurements±standard deviation.
It consisted of a LC‐10ADvp solvent delivery module, a 20 μL Rheodyne sample injector (Rheodyne LLC, Rohnert Park, CA, USA) and a SPD‐10Avp UV‐VIS detector. PeakSimple 2.83 software was employed for data acquisition and HPLC peak integration. […] Elution conditions were optimized for each compound at a flow rate of 1 mL min^−1 employing mobile phases consisting of water and acetonitrile at different percentages, while UV detection was set at λ = 254 nm.

human MT2 receptors [4] = biological target: T2, human MT2 receptors (Homo sapiens, UniProt P49286); assay: Radioligand binding, 2-[125I]iodomelatonin competition at MT2; conditions: cloned human MT2 in CHO cells; from IC50 by Cheng-Prusoff; mean±SD of three determinations; read-out: MT2 K i
T2 sequence (P49286 1-362): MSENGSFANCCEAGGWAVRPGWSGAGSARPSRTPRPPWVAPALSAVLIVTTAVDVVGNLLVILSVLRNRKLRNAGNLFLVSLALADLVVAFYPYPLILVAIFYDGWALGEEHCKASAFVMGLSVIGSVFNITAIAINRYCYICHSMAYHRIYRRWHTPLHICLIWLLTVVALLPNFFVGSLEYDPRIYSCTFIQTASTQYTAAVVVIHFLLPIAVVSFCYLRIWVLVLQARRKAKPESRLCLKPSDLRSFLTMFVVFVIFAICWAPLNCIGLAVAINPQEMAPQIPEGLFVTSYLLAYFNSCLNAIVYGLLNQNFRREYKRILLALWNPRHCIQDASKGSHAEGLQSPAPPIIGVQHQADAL
Procedure: as §3

[5] = Metabolic stability in human liver microsomes; format: in vitro ADME; conditions: for CLi Human LM (intrinsic clearance) / half-life at 5 μM: human liver microsomes 1 mg protein/mL, 5 μM compound, mean±SD; for CLi Human LM (intrinsic clearance): 37 °C; for half-life at 5 μM: NADPH-regenerating system, pH 7.4, 37 °C, read-out: t 1/2 Human LM
Procedure: (§4) Each compound (final concentration: 5 μM) was incubated in the presence of rat or human liver microsomes (final concentration: 1 mg protein/mL) and of a NADPH‐regenerating system (final concentrations: 2 mM NADP^+, 10 mM glucose‐6‐phosphate, 0.4 U mL^−1 glucose‐6‐phosphate dehydrogenase, 5 mM MgCl2) in a 10 mM Phosphate Buffered Saline (PBS) solution, pH 7.4, at 37 °C. Compound was added after a 10 min pre‐incubation at 37 °C and. at stated time points, depending on compound kinetics, sample aliquots were withdrawn, metabolic reaction was quenched by acetonitrile addition (1 : 2), and after a centrifugation step (9000 g, 10 min, 4 °C) the supernatant was analyzed by HPLC‐UV‐VIS.
(§5) Apparent half‐lives (t1/2 in min) for the metabolic clearance of compounds were calculated from the pseudo first‐order rate constants (k) obtained by linear regression of the log chromatographic peak area versus time plots and are reported as means of three experiments±standard deviation. Intrinsic clearance (CLi) values of the compounds were calculated using the following equation: CLi (μL×min^−1×mg protein^−1)=k×V where V (μL×mg protein^−1)=incubation volume/mg protein added.
(§6) Pooled rat and human liver microsomes (20 mg/mL) were supplied by BD Biosciences (BD Biosciences, Woburn, MA, USA). Acetonitrile and methanol were HPLC grade and were supplied by Sigma‐Aldrich (Sigma‐Aldrich srl, Milan, Italy). Water was freshly bidistilled before use. All other reagents were purchased in the highest purity available.
(§7) PeakSimple 2.83 software was employed for data acquisition and HPLC peak integration. HPLC columns were a RP‐C18 Supelco Discovery (Supelco, Bellefonte, PA, USA), 5 μm, 150×4.6 mm i.d. for all compounds except 13, and a Phenomenex Gemini, 5 μm, 150×4.6 mm i.d. for compound 13 (Phenomenex). Elution conditions were optimized for each compound at a flow rate of 1 mL min^−1 employing mobile phases consisting of water and acetonitrile at different percentages, while UV detection was set at λ = 254 nm. For compound 13, the mobile phase consisted of a 10 mM ammonium acetate buffer pH 7.0 and methanol and the UV detection was set at λ = 281 nm.

[6] = Metabolic stability in rat liver microsomes; format: in vitro ADME; conditions: for CLi Rat LM (intrinsic clearance) / half-life at 5 μM: rat liver microsomes 1 mg protein/mL, 5 μM compound, mean±SD; for CLi Rat LM (intrinsic clearance): 37 °C; for half-life at 5 μM: NADPH-regenerating system, pH 7.4, 37 °C, read-out: t 1/2 Rat LM
Procedure: as §4, §5, §6, §7

human MT1 receptors [7] = biological target: T1, human MT1 receptors; assay: Agonist activity at MT1, cell impedance assay (cellular dielectric spectroscopy); format: cell-based; conditions: for EC50: cell impedance assay, CHO cells expressing human MT1, mean±SD, triplicate; for Emax: read-out: MT1 E max
Procedure: (§1) The in vitro pharmacology experiments were conducted at Cerep (Celle‐Lévescault, France) following radioligand binding and cellular functional assays developed elsewhere.[60, 61, 62]
(§2) To define the functional activity of the new compounds, cellular functional assays were performed on CHO cells stably expressing human MT1 or MT2 receptors. Agonist activity at MT1 receptors was evaluated using a cell impedance assay measured by cellular dielectric spectroscopy,[62] and at MT2 receptors with an cAMP assay, measured by a fluorometric method.[61] The EC50 values were determined by non‐linear regression analysis of the concentration‐response curves. Experiments were performed in triplicate.

human MT2 receptors [8] = biological target: T2, human MT2 receptors; assay: Agonist activity at MT2, cAMP assay; format: cell-based; conditions: for EC50: cAMP assay, CHO cells expressing human MT2, mean±SD, triplicate; for functional profile (intrinsic activity): cAMP functional assay at MT2 (with MT1 cell impedance data of Table 3); for Emax: read-out: MT2 E max
Procedure: as §1, §2

[9] = In vivo pharmacokinetic study in rat plasma; parameters: species or system Sprague‐Dawley rats; conditions: for Vd / bioavailability / AUC / Cmax / clearance / half-life: male; for Vd / bioavailability: plasma; for Vd / bioavailability / F (oral bioavailability): rat; for Vd: read-out: V ss; for bioavailability / F (oral bioavailability): PO 40 mg kg^−1 vs IV 5 mg kg^−1; for bioavailability: read-out: F (oral bioavailability); for AUC / Cmax / clearance / half-life: rat plasma
Procedure: To evaluate the in vivo behavior of the two melatonergic ligands 14 and 19, a preliminary pharmacokinetic (PK) study was carried out in male Sprague‐Dawley rats. The compounds were administered as intravenous bolus (IV) or by oral gavage (PO) at doses of 5 or 40 mg kg^−1, respectively. Quantitative analysis was carried out by UPLC/MS/MS and the plasma concentration profiles are shown in Figure 3, while the main PK parameters are listed in Table 4.
The in vivo pharmacokinetic experiments were conducted at NiKem Research (Baranzate – Milan – Italy). PK studies were performed using Sprague‐Dawley CD (albino) male rats (7–9 weeks‐old, weight 160–200 grams, Charles River Lab. Italia, Calco). Animals were housed under standard conditions and had free access to water and standard laboratory rodent diet. Care and husbandry of animals were in conformity with the institutional guidelines, in compliance with national and international laws and policies (EEC Council Directive 86/609, OJL 358 m, 1, Dec. 122, 1987; NIH Guide for the care and Use of Laboratory Animals, NIH Publication No. 86–23, 1985). The compounds were dissolved in water containing 3 % DMSO and 20 % Encapsin (and a stechiometric amount of HCl for 14) at a concentration of 2.5 mg mL^−1 for the IV (bolus) dose, or in water containing 5 % DMSO and 10 % encapsin (and a stechiometric amount of HCl for 14) at a concentration of 4 mg mL^−1 for PO (gavage) dose. Rats were randomly assigned to four treatment groups (n=3) and received a single IV bolus dose (5 mg kg^−1) or a single oral administration (40 mg kg^−1) through oral gavage of compound 14 or 19. Serial blood samples ([…]) were collected from caudal vein at 5, 30, 60, 120, 480 and 1440 min after IV injection, or at 15, 30, 60, 120, 480 and 1440 min after PO administration. Blood samples were collected in heparinized eppendorfs (Heparin Vister 5000 U.I./mL_Marvecs Pharma), gently mixed and placed on ice; then blood was centrifuged (3500×g, at 4 °C for 15 min), the plasma was collected and immediately frozen at −80 °C until submission to UPLC/MS/MS analysis. For the sample preparation, 100 μL of plasma spiked with 5 μL of internal standard (I.S.; 19 for compound 14 and 14 for compound 19; 2.5 μg mL^−1;) were added to a SW96 deep well plate (Waters) containing 300 μL of acetonitrile. The plate was shaken for 10 min and then centrifuged at 3000 rpm for 15 min. UPLC/MS/MS analyses were performed on an Acquity UPLC, coupled with a sample organizer and interfaced with a triple quadrupole Premiere XE (Waters, Milford, USA). LC runs (inj. vol. 5 μL) were carried out at 50 °C on Acquity BEH C18 columns (1.7 μm, 2.1×50 mm) at a flow rate of 0.45 mL min^−1. Mobile phases consisted of a phase A (water) and a phase B (0.1 % formic acid in acetonitrile). The column was conditioned with 2 % phase B for 0.2 min, then brought to 100 % phase B within 0.6 min and maintained at these conditions for 1.1 min. Analyses were carried out using a positive electrospray ionization [ESI(+)] interface in multiple reaction monitoring (MRM) mode. Capillary 3.5 Kv; extractor 3 V; source T 140 °C, desolvation T 450 °C. Transitions: for compound 14 Q1/Q3 315.2/86, CV 14, CE16+315.2/238 CV 14, CE19; for I.S. (compound 19): 301.1/86 CV 14 CE16; LLOQ: 1 ng ml^−1. Transitions: for compound 19 Q1/Q3: 301.1/86CV 14 CE16; for I.S. (compound 14) 315.2/238CV 14, CE19; LLOQ: 1 ng mL^−1. Pharmacokinetic analysis was performed by non‐compartmental analysis (NCA) using the WinNonlin 5.1 software (Pharsight, Mountain View, CA, USA. Absolute oral bioavailability (F) was calculated by linear trapezoidal rule using the relationship: F=[doseIV×AUCoral o‐∞/doseoral×AUCIV o‐∞]×100.

[10] = buffer pH 1.0, simulated gastric fluid, pH 1.0 buffer, read-out: Solubility pH 1.0
[11] = buffer pH 7.4, aqueous buffer, pH 7.4 buffer, read-out: Solubility pH 7.4
[12] = Sprague-Dawley, IV bolus 5 mg kg^−1
[13] = Sprague-Dawley, PO gavage 40 mg kg^−1
[14] = Sprague-Dawley CD, IV bolus 5 mg kg^−1
[15] = Sprague-Dawley CD, PO gavage 40 mg kg^−1

T1 sequence (P48039 whole entry): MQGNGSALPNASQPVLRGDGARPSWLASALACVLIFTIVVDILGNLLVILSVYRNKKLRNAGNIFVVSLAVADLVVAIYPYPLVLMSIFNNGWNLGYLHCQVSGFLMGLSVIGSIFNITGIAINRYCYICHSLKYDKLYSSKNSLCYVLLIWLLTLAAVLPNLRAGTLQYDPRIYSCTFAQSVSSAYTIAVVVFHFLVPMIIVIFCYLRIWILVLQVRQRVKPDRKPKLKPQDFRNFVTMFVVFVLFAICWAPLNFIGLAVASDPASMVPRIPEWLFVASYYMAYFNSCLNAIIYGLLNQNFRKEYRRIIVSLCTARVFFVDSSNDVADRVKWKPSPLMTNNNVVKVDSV

Row | Compound | melting point [°C] | logD ([1]; n-octanol/water (MOPS buffer)) | Ki (human MT1 receptors [2]) [nM] | solubility [3, 10] [µg/mL] | solubility [3, 11] [µg/mL] | Ki (human MT2 receptors [4]) [nM] | CLi Human LM (intrinsic clearance) [5] [μL min^−1 mg prot^−1] | half-life at 5 μM [5] [min] | CLi Rat LM (intrinsic clearance) [6] [μL min^−1 mg prot^−1] | half-life at 5 μM [6] [min] | EC50 (human MT1 receptors [7]) [nM] | Emax (human MT1 receptors [7]) [%] | EC50 (human MT2 receptors [8]) [nM] | functional profile (intrinsic activity) (human MT2 receptors [8]) | Emax (human MT2 receptors [8]) [%] | F (oral bioavailability) [9] | other results
1 | CCCNC(=O)NCCN(c1ccccc1)c1cccc(OC)c1 [Compound 6 c, 1‐{2‐[(3‐Methoxyphenyl)phenylamino]ethyl}‐3‐propylurea] | 63 to 65 | 3.91 ± 0.02 | 57 ± 0.1 | 17.7 ± 0.9 (≈ 54.1 µM) | 14.3 ± 0.1 (≈ 43.7 µM) | 1.7 ± 0.08 | 95.7±14.7 | 7.4 ± 1.2 | 218.4±21.2 | 3.2 ± 0.3 |  |  |  |  |  |  | 
2 | CC(=O)NCCN(c1ccc(F)cc1)c1cccc(C(F)F)c1 [Compound 10, N ‐(2‐{[3‐(Difluoromethyl)phenyl](4‐fluorophenyl)amino}ethyl)acetamide] | 76 to 77 | 3.45 ± 0.02 | > 100 | 54.9 ± 1.1 (≈ 170 µM) | 40.6 ± 0.1 (≈ 126 µM) | 35 ± 0.35 | 12.8±1.3 | 55.4 ± 6.8 | 58.0±8.2 | 12.2 ± 1.5 |  |  |  |  |  |  | 
3 | COc1cccc(N(CCNC(C)=O)c2ccsc2)c1 [Compound 11, N ‐{2‐[(3‐Methoxyphenyl)(thiophen‐3‐yl)amino]ethyl}acetamide] | 76 to 77 | 2.74 ± 0.01 | 0.7 ± 0.1 | 162 ± 4.4 (≈ 556 µM) | 92.5 ± 3.5 (≈ 319 µM) | 0.07 ± 0.02 | 17.5±2.4 | 40.1 ± 5.3 | 175.4±22.3 | 4 ± 0.5 |  |  |  |  |  |  | 
4 | COc1cccc(N(CCNC(C)=O)c2cccc(CO)c2)c1 [Compound 14, N ‐{2‐[(3‐Hydroxymethylphenyl)(3‐methoxyphenyl)amino]ethyl} acetamide] |  | 2.04 ± 0.01 | > 100 | > 1000 | > 1000 | 3.5 ± 0.05 | 10.8±1.2 | 64.9 ± 6.9 | 241.4±28.5 | 2.9 ± 0.3 | 53 ± 0.5 | 32 ± 3 | 6.8 ± 0.3 | MT2‐selective partial agonist | 71 ± 2 | very low | increase of human microsomal stability compared to UCM765 ([5]; human liver microsomes, versus UCM765): approximately 1.5 fold; Vd [9, 12]: 0.9 ± 0.2 L/kg; bioavailability ([9]; Sprague-Dawley): 0.5%; AUC [9, 12]: 1110 ng·h/mL; Cmax [9, 12]: 2760 ± 479 ng/mL; clearance [9, 12]: 76.2 ± 10.3 mL/min/kg; half-life [9, 12]: 11.5 ± 1 min; AUC [9, 13]: 43.8 ng·h/mL; Cmax [9, 13]: 75.6 ± 39.7 ng/mL; half-life [9, 13]: 19.8 ± 1.9 min; increase of rat microsomal stability compared to UCM765 ([6]; rat liver microsomes, versus UCM765): approximately 1.5 fold
5 | COc1ccc(Br)c(N(C)CCNC(C)=O)c1 [Compound 19, N ‐{2‐[(2‐Bromo‐5‐methoxyphenyl)methylamino]ethyl}acetamide] |  |  | 18 ± 0.7 | > 1000 | 823 ± 34.7 (≈ 2730 µM) | 2.4 ± 0.1 | 8.9±1.4 | 78.5 ± 12.2 | 39.6±3.1 | 17.6 ± 1.5 | 4.4 ± 0.2 | 94 ± 4 | 0.83 ± 0.05 | full agonist | 93 ± 2 | moderate | logD ([1]; n-octanol/water (50 mM MOPS buffer)): 1.85 ± 0.01; Vd [9, 14]: 0.7 ± 0.1 L/kg; bioavailability ([9]; Sprague-Dawley CD): 3.6%; AUC [9, 14]: 1100 ng·h/mL; Cmax [9, 14]: 2970 ± 384 ng/mL; clearance [9, 14]: 76.4 ± 8.8 mL/min/kg; half-life [9, 14]: 13.5 ± 0.3 min; AUC [9, 15]: 319 ng·h/mL; Cmax [9, 15]: 456 ± 178 ng/mL; half-life [9, 15]: 26.2 ± 0.9 min
